Experimental data taken from ChEMBL document CHEMBL1201862, “PubChem BioAssay data set” (2004).
Calls of active or inactive are those of the source.

Legend:
[1] = molecular target: Peroxisome proliferator-activated receptor gamma/Nuclear receptor coactivator 1 (Homo sapiens, UniProt P37231); format: functional;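 note: agonist potency as compounds enhance coactivator SRC-1 recruitment to PPARgamma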
Cytochrome P450 2C19 = Cytochrome P450 2C19 (Homo sapiens, UniProt P33261); test: Cytochrome panel assay with activity outcomes. Panel member name: p450-cyp2c19 Compounds with AC50 equal or less than 10 uM are considered active; format: functional; details: read-out: AC50
[2] = molecular target: Peroxisome proliferator-activated receptor gamma/Nuclear receptor coactivator 2 (Homo sapiens, UniProt P37231); format: functional;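 note: agonist potency for raising coactivator recruitment to the receptor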
[3] = molecular target: Peroxisome proliferator-activated receptor gamma/Nuclear receptor coactivator 3 (Homo sapiens, UniProt P37231); format: functional;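 note: agonist potency for raising coactivator recruitment to the receptor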
[4] = molecular target: Lytic switch protein BZLF1 (Epstein-Barr virus (strain B95-8) (HHV-4) (Human herpesvirus 4), UniProt P03206); test: inhibition of BZLF1 ZTA DNA binding – biochemical, fluorescence polarization, Epstein-Barr virus, 1536-well, counter-screen for EBNA-1 inhibitor project, dose response (AID 2377); design: species or system human gammaherpesvirus 4;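 note: fluorescence polarization of Cy5-labelled ZRE DNA probe bound by purified Zta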
[5] = molecular target: Epstein-Barr nuclear antigen 1 (Epstein-Barr virus (strain B95-8) (HHV-4) (Human herpesvirus 4), UniProt P03211); test: inhibition of EBV nuclear antigen 1 DNA binding – biochemical, fluorescence polarization, 1536-well, dose response (AID 2381); design: species or system human gammaherpesvirus 4;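 note: fluorescence polarization of a Cy5 DNA probe bound by EBNA-1 protein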
[6] = molecular target: Glyceraldehyde-3-phosphate dehydrogenase (Homo sapiens, UniProt P04406)
Bcl-2-related protein A1 [7] = molecular target: T1, Bcl-2-related protein A1 (Mus musculus, UniProt Q07440); test: Bfl-1 binding inhibitors, SAR follow-up, biochemical, fluorescence polarization (AID 1070)
T1 sequence (Q07440 whole entry): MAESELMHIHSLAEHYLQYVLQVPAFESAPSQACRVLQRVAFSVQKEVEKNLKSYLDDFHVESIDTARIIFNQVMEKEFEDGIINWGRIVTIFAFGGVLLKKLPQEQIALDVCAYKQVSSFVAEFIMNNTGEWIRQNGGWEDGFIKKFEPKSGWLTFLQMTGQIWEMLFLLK

Bcl-2-related protein A1 [8] = molecular target: T1, Bcl-2-related protein A1; test: small-molecule antagonists of Bfl-1/BH3 interaction – biochemical, TR-FRET, mouse Bfl-1, confirmation (AID 621);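 note: TR-FRET binding of GST-Bfl-1 to FITC-labelled Bid peptide via terbium antibody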
H9c2 = test: cells; format: functional, cell-based; details: Rattus norvegicus, H9c2, Myocardium;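 note: confirmatory concentration-response retest of ultra-high-throughput screening hits for modulation of myocardial damage; cell death induced by hydrogen peroxide oxidative stress; compound pretreatment for 60 min then peroxide exposure for 2 h; potency is for protecting the cells against peroxide damage rather than for killing them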
[9] = molecular target: T2, Luciferin 4-monooxygenase (Photinus pyralis, UniProt P08659); test: inhibition of purified Photinus pyralis luciferase – biochemical, luminescence, dose response (AID 1891)
[10] = antiviral protection against BTV-induced cell death – arbovirus, BSR cells, confirmation (AID 1250); format: functional;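 note: protection from viral cytopathic effect measured as cell viability by ATP luminescence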
[11] = Luminescence Cell-Based Dose Confirmation HTS to Identify Inhibitors of Platelet Dense Granule Release. [Related pubchem assays: 1663 (Primary HTS), 1678 (Summary of Project)]; format: functional
Protein skinhead-1 = molecular target: T3, Protein skinhead-1 (Caenorhabditis elegans, UniProt P34707); format: functional
T3 sequence (P34707 whole entry): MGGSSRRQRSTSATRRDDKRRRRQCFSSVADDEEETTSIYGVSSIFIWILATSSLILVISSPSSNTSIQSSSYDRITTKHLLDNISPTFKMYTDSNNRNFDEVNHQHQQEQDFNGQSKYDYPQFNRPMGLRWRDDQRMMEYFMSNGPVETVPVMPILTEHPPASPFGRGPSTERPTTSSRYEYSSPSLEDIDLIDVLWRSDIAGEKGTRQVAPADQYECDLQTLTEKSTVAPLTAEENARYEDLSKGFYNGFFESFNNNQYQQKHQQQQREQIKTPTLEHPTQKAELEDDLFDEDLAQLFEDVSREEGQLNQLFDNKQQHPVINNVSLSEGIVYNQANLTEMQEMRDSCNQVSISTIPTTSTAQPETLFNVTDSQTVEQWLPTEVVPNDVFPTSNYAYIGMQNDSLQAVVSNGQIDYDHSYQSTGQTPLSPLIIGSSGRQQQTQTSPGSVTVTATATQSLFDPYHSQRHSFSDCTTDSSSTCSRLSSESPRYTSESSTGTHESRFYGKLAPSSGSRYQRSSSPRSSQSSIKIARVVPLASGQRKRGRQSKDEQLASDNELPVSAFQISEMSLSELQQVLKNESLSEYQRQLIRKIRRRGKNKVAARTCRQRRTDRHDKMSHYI

[12] = molecular target: T2, Luciferin 4-monooxygenase; test: Counter Screen for Luciferase-based Assay Positives. [Related pubchem assays: 620, 618, 411 ]
HT-1080 = test: HT1080 cell viability loss – fluorescence readout (AID 620); format: functional, cell-based; details: Homo sapiens
[13] = molecular target: T4, Sentrin-specific protease 6 (Homo sapiens, UniProt Q9GZR1); format: functional;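 note: Luminescence-based dose-response confirmatory assay of SENP6 inhibition, following up an ultra-high-throughput screen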
T4 sequence (Q9GZR1 whole entry): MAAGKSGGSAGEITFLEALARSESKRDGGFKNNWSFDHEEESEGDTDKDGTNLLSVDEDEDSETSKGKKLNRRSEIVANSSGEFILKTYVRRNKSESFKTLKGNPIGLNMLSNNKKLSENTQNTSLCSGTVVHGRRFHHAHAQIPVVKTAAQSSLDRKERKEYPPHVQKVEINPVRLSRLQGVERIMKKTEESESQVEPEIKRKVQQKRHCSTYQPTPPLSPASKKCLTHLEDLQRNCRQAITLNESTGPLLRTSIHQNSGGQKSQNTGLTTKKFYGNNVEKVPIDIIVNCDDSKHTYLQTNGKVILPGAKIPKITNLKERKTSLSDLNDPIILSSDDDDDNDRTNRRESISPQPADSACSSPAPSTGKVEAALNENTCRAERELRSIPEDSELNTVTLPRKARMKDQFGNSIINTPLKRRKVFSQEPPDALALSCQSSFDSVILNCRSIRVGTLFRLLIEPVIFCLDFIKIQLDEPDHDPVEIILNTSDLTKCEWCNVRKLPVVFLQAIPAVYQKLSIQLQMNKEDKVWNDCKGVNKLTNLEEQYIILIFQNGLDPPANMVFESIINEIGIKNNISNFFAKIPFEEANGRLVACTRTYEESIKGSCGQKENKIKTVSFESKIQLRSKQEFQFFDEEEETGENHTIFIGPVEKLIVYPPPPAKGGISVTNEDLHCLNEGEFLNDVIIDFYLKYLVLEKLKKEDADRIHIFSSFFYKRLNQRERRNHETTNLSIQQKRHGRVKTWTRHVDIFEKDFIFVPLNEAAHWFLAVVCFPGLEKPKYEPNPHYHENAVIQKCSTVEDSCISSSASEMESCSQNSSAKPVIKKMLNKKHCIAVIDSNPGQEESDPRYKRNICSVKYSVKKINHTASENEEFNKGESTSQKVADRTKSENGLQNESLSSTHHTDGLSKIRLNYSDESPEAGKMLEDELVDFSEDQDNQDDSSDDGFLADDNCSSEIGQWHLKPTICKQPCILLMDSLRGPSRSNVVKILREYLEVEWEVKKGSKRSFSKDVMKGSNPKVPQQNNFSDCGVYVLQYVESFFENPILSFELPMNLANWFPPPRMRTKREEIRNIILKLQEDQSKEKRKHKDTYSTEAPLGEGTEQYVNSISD

H4 = test: Luminescence Cell-Based Dose Response HTS to Identify Activators of 5'UTR Stem-Loop Driven Prion Protein mRNA Translation in H4 Neuroglioblastoma Cells. [Related pubchem assays: 1829 (Project Summary), 1814 (Primary HTS)]; format: functional; details: Homo sapiens
[14] = Luminescence Cell-Based Dose Confirmation to Identify Activators of 5'UTR Stem-Loop Driven Alpha-Synuclein mRNA Translation in H4 Neuroglioblastoma Cells. [Related pubchem assays: 1829 (Project Summary), 1814 (Primary HTS)]; format: functional
Caspase-3 = molecular target: T5, Caspase-3 (Homo sapiens, UniProt P42574); format: functional;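 note: Dose-response selectivity test against caspase-3 for candidate inhibitors of sentrin-specific proteases (SENPs)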
T5 sequence (P42574 whole entry): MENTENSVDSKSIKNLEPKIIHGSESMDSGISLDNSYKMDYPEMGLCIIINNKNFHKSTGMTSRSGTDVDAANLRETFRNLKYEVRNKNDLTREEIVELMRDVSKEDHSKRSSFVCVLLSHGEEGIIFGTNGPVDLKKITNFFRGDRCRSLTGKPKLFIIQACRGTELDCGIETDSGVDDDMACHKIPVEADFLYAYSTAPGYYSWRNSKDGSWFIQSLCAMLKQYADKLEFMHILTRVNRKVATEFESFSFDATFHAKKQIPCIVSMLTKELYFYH

[15] = Luminescence Cell-Based Dose Response HTS to Identify Activators of Luciferase Translation or Activity in H4 […] Cells. [Related pubchem assays: 1829 (Project Summary), 1814 (Primary HTS)]; format: functional
[16] = molecular target: T6, Sentrin-specific protease 8 (Homo sapiens, UniProt Q96LD8); format: functional;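 note: luminescence read-out of SENP8 inhibition, dose-response confirmation following an ultra-high-throughput screen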
T6 sequence (Q96LD8 whole entry): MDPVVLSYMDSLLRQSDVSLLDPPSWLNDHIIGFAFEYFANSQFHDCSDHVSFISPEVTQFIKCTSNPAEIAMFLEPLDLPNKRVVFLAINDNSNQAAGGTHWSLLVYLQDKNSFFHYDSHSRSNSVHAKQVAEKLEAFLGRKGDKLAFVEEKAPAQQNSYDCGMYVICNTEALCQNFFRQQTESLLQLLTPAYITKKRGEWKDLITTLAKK

[17] = Luminescence Cell-Based Dose Response to Identify Activators of Luciferase Translation or Activity in H4-C Neuroglioblastoma Cells. [Related pubchem assays: 1829 (Project Summary), 1814 (Primary HTS)]; format: functional
[18] = Luminescence Cell-Based Dose Response to Identify Activators of 5'UTR Stem-Loop Driven Prion Protein mRNA Translation in H4-C Neuroglioblastoma Cells. [Related pubchem assays: 1829 (Project Summary), 1814 (Primary HTS)]; format: functional
[19] = molecular target: T7, Sentrin-specific protease 7 (Homo sapiens, UniProt Q9BQF6); format: functional;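 note: Luminescence-based dose-response confirmation of ultra-high-throughput screening hits, measuring inhibition of SENP7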
T7 sequence (Q9BQF6 whole entry): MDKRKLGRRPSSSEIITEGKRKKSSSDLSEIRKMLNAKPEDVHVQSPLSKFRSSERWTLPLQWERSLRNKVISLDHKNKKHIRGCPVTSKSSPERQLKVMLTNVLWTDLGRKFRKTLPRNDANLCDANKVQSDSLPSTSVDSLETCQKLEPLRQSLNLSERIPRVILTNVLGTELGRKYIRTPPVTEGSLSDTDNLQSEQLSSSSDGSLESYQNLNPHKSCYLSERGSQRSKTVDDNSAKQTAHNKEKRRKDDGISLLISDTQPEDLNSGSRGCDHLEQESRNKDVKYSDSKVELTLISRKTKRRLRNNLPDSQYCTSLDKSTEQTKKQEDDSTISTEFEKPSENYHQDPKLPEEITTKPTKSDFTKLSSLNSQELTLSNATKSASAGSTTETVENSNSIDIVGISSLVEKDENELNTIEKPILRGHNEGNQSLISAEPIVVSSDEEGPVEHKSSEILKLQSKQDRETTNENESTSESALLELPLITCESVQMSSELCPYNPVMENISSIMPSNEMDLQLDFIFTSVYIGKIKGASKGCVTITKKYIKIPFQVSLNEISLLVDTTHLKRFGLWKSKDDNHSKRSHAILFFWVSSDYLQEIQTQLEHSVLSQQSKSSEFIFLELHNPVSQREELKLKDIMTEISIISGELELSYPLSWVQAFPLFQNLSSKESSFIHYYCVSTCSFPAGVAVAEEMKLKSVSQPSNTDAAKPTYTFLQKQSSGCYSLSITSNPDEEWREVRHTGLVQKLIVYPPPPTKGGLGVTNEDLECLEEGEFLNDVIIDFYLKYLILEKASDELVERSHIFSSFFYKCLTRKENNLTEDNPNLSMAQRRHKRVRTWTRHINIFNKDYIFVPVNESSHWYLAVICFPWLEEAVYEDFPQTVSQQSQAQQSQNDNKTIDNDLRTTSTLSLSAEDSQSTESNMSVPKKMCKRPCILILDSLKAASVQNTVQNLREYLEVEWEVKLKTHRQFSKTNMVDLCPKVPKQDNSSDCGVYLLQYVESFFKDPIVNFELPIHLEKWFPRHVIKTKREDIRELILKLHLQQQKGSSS

[20] = A Cell Based Secondary Assay To Explore Cytotoxicity of Compounds that Sensitize Mycobacterium Tuberculosis to Beta-Lactam Antibiotics.; format: functional
Cytochrome P450 3A4 = Cytochrome P450 3A4 (Homo sapiens, UniProt P08684);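 note: CYP3A4 tested as one member of a cytochrome P450 panel screen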
Cytochrome P450 3A4, sequence (P08684 whole entry): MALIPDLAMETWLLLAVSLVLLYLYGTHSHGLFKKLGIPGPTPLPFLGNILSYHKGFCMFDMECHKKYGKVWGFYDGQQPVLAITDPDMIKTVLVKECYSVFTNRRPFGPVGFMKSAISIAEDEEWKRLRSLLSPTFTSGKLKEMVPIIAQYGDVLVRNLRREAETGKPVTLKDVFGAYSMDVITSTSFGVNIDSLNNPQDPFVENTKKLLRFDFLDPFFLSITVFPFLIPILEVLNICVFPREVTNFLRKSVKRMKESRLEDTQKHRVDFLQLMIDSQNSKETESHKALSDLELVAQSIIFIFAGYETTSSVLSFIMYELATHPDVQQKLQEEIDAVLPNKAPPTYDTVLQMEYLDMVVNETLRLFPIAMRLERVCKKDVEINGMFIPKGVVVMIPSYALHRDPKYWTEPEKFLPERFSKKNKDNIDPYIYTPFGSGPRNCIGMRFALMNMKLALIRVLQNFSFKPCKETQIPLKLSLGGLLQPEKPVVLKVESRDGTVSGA

T2 sequence (P08659 whole entry): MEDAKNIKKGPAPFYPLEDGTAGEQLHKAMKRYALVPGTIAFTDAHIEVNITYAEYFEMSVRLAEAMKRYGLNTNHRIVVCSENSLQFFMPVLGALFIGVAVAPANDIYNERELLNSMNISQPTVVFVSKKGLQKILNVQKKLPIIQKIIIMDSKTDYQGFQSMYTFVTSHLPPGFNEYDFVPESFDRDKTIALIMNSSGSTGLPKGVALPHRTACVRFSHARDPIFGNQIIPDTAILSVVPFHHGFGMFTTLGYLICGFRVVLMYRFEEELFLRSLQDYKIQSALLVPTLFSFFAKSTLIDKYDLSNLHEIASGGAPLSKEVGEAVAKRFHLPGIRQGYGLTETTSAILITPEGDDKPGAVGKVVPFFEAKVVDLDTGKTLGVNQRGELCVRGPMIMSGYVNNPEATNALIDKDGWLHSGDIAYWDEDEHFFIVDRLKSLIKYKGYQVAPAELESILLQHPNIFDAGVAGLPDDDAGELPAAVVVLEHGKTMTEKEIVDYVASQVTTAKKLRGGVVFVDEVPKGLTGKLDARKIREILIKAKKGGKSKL
Lytic switch protein BZLF1, sequence (P03206 whole entry): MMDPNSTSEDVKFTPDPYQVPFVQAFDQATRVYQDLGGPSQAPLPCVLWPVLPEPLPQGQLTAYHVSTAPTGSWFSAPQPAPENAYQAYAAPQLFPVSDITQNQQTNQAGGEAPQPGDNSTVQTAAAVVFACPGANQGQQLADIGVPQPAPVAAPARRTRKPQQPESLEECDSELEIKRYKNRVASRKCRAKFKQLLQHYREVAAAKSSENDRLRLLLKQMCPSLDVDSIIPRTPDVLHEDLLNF
Epstein-Barr nuclear antigen 1, sequence (P03211 whole entry): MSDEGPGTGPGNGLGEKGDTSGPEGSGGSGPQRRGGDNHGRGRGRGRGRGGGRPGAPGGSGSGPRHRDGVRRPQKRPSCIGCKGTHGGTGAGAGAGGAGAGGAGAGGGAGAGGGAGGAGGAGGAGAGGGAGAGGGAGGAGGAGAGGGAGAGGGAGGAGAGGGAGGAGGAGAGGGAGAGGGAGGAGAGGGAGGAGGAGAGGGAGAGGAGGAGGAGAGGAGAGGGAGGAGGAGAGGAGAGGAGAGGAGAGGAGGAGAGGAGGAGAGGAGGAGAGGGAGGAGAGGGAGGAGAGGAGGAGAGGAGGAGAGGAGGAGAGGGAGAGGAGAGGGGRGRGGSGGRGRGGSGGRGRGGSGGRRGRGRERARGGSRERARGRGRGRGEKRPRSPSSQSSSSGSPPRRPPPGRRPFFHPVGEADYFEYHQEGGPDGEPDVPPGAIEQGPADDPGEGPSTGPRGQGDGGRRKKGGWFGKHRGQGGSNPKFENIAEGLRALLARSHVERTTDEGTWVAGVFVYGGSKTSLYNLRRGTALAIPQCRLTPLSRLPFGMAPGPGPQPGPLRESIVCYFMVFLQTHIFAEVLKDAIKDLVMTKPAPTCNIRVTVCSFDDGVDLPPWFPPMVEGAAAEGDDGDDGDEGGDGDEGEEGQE
Peroxisome proliferator-activated receptor gamma/Nuclear receptor coactivator 2, sequence (P37231 whole entry): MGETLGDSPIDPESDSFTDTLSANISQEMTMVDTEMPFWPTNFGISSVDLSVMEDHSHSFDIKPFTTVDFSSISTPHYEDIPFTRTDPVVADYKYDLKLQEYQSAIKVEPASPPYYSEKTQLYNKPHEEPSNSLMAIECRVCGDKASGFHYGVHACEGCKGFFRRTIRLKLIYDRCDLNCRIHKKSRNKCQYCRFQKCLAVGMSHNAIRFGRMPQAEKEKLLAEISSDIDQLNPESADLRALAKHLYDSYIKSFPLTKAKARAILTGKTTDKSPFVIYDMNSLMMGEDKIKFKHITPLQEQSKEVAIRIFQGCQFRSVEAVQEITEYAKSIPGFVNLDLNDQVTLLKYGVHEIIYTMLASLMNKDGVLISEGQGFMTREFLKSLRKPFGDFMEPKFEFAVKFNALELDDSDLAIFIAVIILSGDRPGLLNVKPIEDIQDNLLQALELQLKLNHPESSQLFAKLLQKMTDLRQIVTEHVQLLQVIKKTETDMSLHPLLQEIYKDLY
Peroxisome proliferator-activated receptor gamma/Nuclear receptor coactivator 2, sequence (Q15596 whole entry, further chain): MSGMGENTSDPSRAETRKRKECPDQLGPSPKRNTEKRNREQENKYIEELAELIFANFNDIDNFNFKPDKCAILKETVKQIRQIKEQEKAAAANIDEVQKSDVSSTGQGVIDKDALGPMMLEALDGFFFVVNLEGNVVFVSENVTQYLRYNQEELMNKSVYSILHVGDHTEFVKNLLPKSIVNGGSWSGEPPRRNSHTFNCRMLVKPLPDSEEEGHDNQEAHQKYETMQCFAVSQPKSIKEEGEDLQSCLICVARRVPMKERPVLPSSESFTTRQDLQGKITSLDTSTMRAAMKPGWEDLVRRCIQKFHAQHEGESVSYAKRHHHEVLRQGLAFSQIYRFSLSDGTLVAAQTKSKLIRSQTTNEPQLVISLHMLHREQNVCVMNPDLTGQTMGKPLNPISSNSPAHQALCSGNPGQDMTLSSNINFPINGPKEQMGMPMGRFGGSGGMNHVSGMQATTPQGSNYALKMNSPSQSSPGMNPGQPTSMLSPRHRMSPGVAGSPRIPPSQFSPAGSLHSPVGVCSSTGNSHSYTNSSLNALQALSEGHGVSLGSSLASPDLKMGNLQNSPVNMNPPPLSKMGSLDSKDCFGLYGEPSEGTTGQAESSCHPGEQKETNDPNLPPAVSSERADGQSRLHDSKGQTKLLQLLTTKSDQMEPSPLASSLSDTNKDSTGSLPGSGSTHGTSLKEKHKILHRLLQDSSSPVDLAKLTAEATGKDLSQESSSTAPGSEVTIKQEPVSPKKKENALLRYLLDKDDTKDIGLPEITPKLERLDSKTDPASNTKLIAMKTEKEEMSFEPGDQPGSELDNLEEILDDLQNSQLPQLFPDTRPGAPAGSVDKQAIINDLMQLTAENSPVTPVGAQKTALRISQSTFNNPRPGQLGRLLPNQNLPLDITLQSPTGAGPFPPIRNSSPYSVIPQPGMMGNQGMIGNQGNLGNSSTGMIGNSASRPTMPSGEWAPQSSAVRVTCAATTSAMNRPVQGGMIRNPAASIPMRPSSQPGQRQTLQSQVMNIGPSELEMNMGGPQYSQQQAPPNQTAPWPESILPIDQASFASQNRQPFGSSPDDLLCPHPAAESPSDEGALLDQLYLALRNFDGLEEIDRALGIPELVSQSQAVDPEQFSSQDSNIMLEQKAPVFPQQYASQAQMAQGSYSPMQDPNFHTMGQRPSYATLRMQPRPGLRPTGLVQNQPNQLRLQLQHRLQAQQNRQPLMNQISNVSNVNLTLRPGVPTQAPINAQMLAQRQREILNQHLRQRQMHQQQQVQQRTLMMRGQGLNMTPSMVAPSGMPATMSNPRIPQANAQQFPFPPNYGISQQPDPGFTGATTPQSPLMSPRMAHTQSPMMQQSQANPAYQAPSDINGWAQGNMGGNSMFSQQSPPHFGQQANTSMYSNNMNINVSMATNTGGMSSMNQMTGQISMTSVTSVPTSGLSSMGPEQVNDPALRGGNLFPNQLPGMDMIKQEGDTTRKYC
Glyceraldehyde-3-phosphate dehydrogenase, sequence (P04406 whole entry): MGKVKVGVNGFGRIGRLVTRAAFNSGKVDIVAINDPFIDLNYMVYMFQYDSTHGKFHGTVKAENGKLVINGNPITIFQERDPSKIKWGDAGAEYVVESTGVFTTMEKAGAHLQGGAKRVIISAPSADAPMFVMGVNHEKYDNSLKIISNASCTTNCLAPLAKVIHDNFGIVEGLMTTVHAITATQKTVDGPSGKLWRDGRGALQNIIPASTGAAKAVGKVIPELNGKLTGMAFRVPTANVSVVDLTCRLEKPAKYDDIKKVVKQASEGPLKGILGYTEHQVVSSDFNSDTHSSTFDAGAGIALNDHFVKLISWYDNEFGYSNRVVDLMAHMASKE
Cytochrome P450 2C19, sequence (P33261 whole entry): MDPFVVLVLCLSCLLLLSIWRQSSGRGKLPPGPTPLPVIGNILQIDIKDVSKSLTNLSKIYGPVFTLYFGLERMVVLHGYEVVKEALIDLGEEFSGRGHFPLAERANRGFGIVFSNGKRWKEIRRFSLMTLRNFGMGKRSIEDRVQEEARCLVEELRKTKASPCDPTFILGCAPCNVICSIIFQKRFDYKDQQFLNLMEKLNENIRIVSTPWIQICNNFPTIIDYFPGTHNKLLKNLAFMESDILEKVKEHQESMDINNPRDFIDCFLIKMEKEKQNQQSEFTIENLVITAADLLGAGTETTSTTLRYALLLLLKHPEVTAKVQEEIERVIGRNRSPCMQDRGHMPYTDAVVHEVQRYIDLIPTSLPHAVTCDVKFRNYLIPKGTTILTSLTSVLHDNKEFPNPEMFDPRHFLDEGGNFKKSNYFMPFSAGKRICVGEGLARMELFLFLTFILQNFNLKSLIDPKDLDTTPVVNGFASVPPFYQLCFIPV

O=C(CC1CCCC1)Nc1ccc2c(c1)CCC2
EC50 [1]: > 79.4 µM (not active) | AC50 (Cytochrome P450 2C19): 7.08 µM (inconclusive) | EC50 [2]: > 79.4 µM (not active) | EC50 [3]: > 79.4 µM (not active)

COc1cc(OC)c(/C=C2\SC(=O)N(CC(=O)Nc3ccccc3F)C2=O)c(OC)c1
IC50 [4]: > 111 µM (not active) | IC50 [5]: 1.98 µM (active)

CCOc1ccccc1N1CCN(C2=C(Cl)C(=O)N(c3ccc(Cl)c(Cl)c3)C2=O)CC1
IC50 [6]: > 100 µM (not active) | IC50 (Bcl-2-related protein A1 [7]): > 100 µM (not active) | IC50 (Bcl-2-related protein A1 [8]): > 100 µM (not active)

COc1ccc(-c2nnc(-c3cc(OC)c(OC)c(OC)c3)o2)cc1OC
IC50 (H9c2): 12.5 µM (active) | EC50 [9]: > 112 µM (not active) | IC50 [10]: 27.5 µM (active) | EC50 [11]: > 112 µM (not active)

Cc1ccc2nc(NC(=O)c3ccco3)sc2c1
IC50 (Protein skinhead-1): > 100 µM (inactive) | EC50 [12]: 18.9 µM (active) | EC50 (HT-1080): > 50 µM (not active)

O=C(Nc1cccc(F)c1)Nc1ccc2c(c1)CCC2
IC50 [13]: > 100 µM (inactive) | EC50 (H4): > 120 µM (not active) | EC50 [14]: 10.7 µM (active) | IC50 (Caspase-3): 57.8 µM (active) | EC50 [15]: < 0.1 µM (active) | IC50 [16]: > 100 µM (inactive) | EC50 [17]: 0.463 µM (active) | EC50 [18]: 0.63 µM (active) | IC50 [19]: 2.85 µM (active)

c1ccc(-c2ccc(-c3ccccn3)nn2)nc1
EC50 [12]: > 100 µM (not active) | EC50 (HT-1080): > 50 µM (not active)

C[C@H](NC(=O)c1[nH]cnc1C(=O)Nc1cccc(Cl)c1)c1ccccc1
CC50 [20]: 19.3 µM (active)

COc1ccc(N/C=C2/C(=O)N(c3ccc(OC)cc3)C(=O)c3ccccc32)cc1
IC50 [4]: > 111 µM (not active) | IC50 [5]: 8.99 µM (active)

COc1ccc2nc(O)c(-c3nnn(-c4ccc(C)cc4)n3)cc2c1
IC50 (Bcl-2-related protein A1 [7]): > 100 µM (not active) | IC50 (Bcl-2-related protein A1 [8]): > 100 µM (not active)

Cc1ccccc1OCC(=O)Nc1sc(C(=O)Nc2cccc(C)c2C)c(C)c1C#N
EC50 [1]: 52.4 µM (not active) | AC50 (Cytochrome P450 3A4): inconclusive | EC50 [2]: 36.5 µM (not active) | EC50 [3]: < 79.4 µM (not active)
